Laboratory results from the SangsterLogP compilation.

conditions: pH 2.0

logD | Structure (SMILES)
3.56 | COC(=O)C(=O)C1=C(c2ccc(Cl)cc2)NC(=O)N[C@@H]1c1ccc(Cl)cc1
4.37 | Cc1ccccc1O[C@@H]1C(=O)N(Cc2ccc3c(c2)OCO3)[C@H]1c1ccc2c(c1)OCO2
3.76 | COc1ccc([C@@H](C(=O)Nc2ccc3c(c2)OCCO3)N(C)C(=O)Cc2c[nH]c3ccccc23)cc1
3.32 | COc1ccc(N(CC(=O)N[C@@H]2CCS(=O)(=O)C2)S(=O)(=O)c2ccc(Cl)c(Cl)c2)cc1
3.37 | CN(C)S(=O)(=O)c1cccc(Cn2c(=O)c(=O)n(Cc3ccccc3)c3ccc(Cl)cc32)c1
2.18 | Cc1cc(C)n2nc(S[C@@H](C)C(=O)NCC(=O)Nc3ccc(F)c(F)c3F)nc2n1
3.17 | CCOC(=O)/C=c1/s/c(=C/c2c(F)cccc2F)c(=O)n1CC(=O)N(C)C

same assay, conditions: pH 5.0

logD | Structure (SMILES)
3.62 | O=C(N[C@H](Sc1ncccn1)C(=O)c1ccccc1)c1ccccc1
6.66 | CC(C)CN1C(=O)/C(=C/[C@@H]2CC=CCC2)SC1=S
4.83 | O=C(c1sc2cc(Cl)ccc2c1Cl)N1CCN(C(=S)NC[C@H]2CCCO2)CC1
3.85 | Cc1ccc([N+](=O)[O-])cc1N1C(=O)[C@@H]2[C@@H](C1=O)[C@@H](C(=O)C(C)(C)C)N1N=CC=C[C@H]21
5.34 | CC(=O)Oc1ccc(C(=O)Nc2cccc(C(=O)c3cccc(NC(=O)c4ccc(OC(C)=O)cc4)c3)c2)cc1
2.69 | CCCCN1C(=O)N(C)[C@@H]2[C@H]1N(C)C(=O)N2CCCC
4.18 | Cc1ccc(N2C(=O)c3ccccc3N[C@H]2c2cccc([N+](=O)[O-])c2)cc1
4.43 | O=C(Cc1coc2cc3c(cc12)CCC3)O[C@H]1CCCCC1=O
3.74 | FC(F)Oc1ccc(NC(=S)NC[C@@H]2CCCO2)cc1Cl
3.33 | O=C(NC[C@H]1CCCO1)c1cc2nc(C3CC3)cc(C(F)(F)F)n2n1
3.42 | C[C@@H]1CCCCN1C(=O)CCCCC(=O)N1CCCC[C@H]1C
4.38 | Cc1cc(C(=O)CN2C(=O)[C@@H]3CC=CC[C@H]3C2=O)c(C)n1Cc1ccc2c(c1)OCO2
4.5 | O=C(Nc1ccc(C(F)(F)F)cc1)[C@H]1CCc2ccccc2O1
6.96 | CCN1C(=O)/C(=C2\SC(=S)N(Cc3ccc(OC)cc3)C2=O)c2cc(Br)ccc21
3.48 | C[C@H](C(=O)NC1CCCC1)N(c1ccc(Cl)cc1)S(C)(=O)=O
4.77 | C[C@@H](Oc1ccccc1)C(=O)Nc1ccc(OC(F)(F)F)cc1
2.79 | COc1ccc2c(c1)O[C@](O)(C(F)(F)F)CC2=O
4.49 | Cc1ccc(-c2nc3n(n2)C(=O)C[C@H](c2cccc([N+](=O)[O-])c2)S3)cc1
5.87 | CC(C)[C@H]1O[C@H]2CCCC[C@H]2C2=CCCC[C@H]21
5.31 | CCOC(=O)C1=C(C)NC(=S)N[C@@H]1c1ccc(OCc2ccc(Cl)cc2)c(OCC)c1
4.62 | COc1ccc([C@@H]2C3=C(C[C@H](c4ccco4)CC3=O)Nc3ccccc3N2C(=O)C(F)(F)F)cc1
5.04 | CC1(C)CC(=O)C2=C(C1)N(c1c(F)cccc1F)C(N)=C(C#N)[C@@H]2c1cccc(Cl)c1
4.5 | N#CC1=C(N)C(C#N)(C#N)[C@@H](c2ccccc2Cl)[C@@H]2CSCC=C12

logD | Structure (SMILES)
3.48 | C[C@@H](NC(=O)C1CCN(C(=O)c2ccc(F)cc2)CC1)c1ccccc1
4.04 | COc1cccc(C(=O)N2CCC[C@H](c3ccccc3)C2)c1
4.24 | C[C@@H]1CCC2[C@]3(C)COC(C)(C)O[C@H]3CC[C@]2(C)[C@@]12CCC1(COC(=O)C1)O2 (stereo not given in full)
3.56 | Cc1ccc(N2C(=O)N(c3cccc(Cl)c3)[C@@H]3CS(=O)(=O)C[C@@H]32)cc1
6.25 | CC(=O)c1cccc(N2C(=O)[C@@H]3[C@H](C2=O)[C@@H]2C=C[C@H]3C2=C(c2ccc(C)cc2)c2ccc(C)cc2)c1
4.4 | COc1ccc(C(=O)/C=C/C=C(Cl)Cl)cc1
5.83 | COc1ccc([C@@H]2[C@H]3C(=O)N(c4sc5c(c4C#N)CCCC5)C(=O)[C@@H]3ON2c2ccccc2C)cc1
4.17 | CCCN(CCC)S(=O)(=O)c1ccc(C(=O)OCCN2C(=O)C3C4c5ccccc5C(c5ccccc54)C3C2=O)cc1 (stereo not given)
4.47 | O=C(c1nn2c(c1Br)N[C@H](c1cccs1)C[C@H]2C(F)(F)F)N1CCCC1
5.26 | Cc1ccc(C)c(NC(=O)[C@H]2CC3c4ccccc4C2c2ccccc23)c1
3.58 | CCN(CC)S(=O)(=O)N1CCC[C@H](C(=O)NC2CCCCC2)C1
2.66 | CCN(CC)C(=O)[C@@]12CC[C@@](C)(C(=O)O1)C2(C)C
4.34 | CCN(CC)S(=O)(=O)c1ccc(/C=C/C(=O)NC2CCCCC2)cc1
6.21 | C[C@H]1C[C@H](NC(=S)NCc2csc3ccccc23)CC(C)(C)C1
4.55 | COc1ccc([C@@H]2CC(=O)N(c3sc4c(c3C#N)CCCC4)C3=C2C(=O)CCC3)c(OC)c1
3.66 | COc1ccc([C@H]2[C@H](C(=O)Nc3ccc(F)cc3F)c3cc(OC)c(OC)cc3C(=O)N2C)cc1OC
5.5 | COc1ccc([C@@H]2[C@@H]3CCCC=C3C(C#N)=C(N)C2(C#N)C#N)cc1COCC(F)(F)F
4.34 | Cc1cc(Cl)ccc1NC(=S)NCCc1c[nH]c2ccccc12
5.55 | CCC(=O)N1c2ccccc2NC2=C(C(=O)CC(C)(C)C2)[C@H]1c1ccc(-c2ccc([N+](=O)[O-])cc2Cl)o1
2.7 | Cc1cccc(NC(=O)NC(C)C)c1C
3.11 | C[C@]12CC[C@@H]3C[C@@]1(C(=O)NCC(F)(F)F)OC[C@@]32C
5.01 | COc1ccc([C@@H]2[C@H](C(=O)N3CCCCCC3)c3ccccc3C(=O)N2Cc2ccc(F)cc2)cc1
4.94 | C[C@@]1(c2ccc(Cl)cc2)NC(=S)N2[C@@H]1NC(=S)N2c1ccc(Cl)cc1

Structure (SMILES) | logD
CC(C)C(=O)N[C@H](Oc1ccc(C=O)cc1)C(Cl)(Cl)Cl | 3.68

same assay, conditions: pH 6.5

logD | Structure (SMILES)
2.18 | Cc1ccc2[nH]c3nc(N/N=C/C=C/c4ccco4)nnc3c2c1
4.3 | O=C(CN1N=N[C@@H]2C(=O)N(c3ccc(Cl)cc3Cl)C(=O)[C@@H]21)Nc1ccccc1
4.8 | C[C@@H](CCc1ccccc1)NC(=O)C(=O)NC[C@@H]1COc2ccccc2O1
4.92 | O=C(CCCCCN1C(=O)/C(=C\c2cccs2)SC1=S)N1CCOCC1
4.52 | C=CCOc1cccc([C@@H]2c3c(oc4ccccc4c3=O)C(=O)N2c2nnc(C)s2)c1
5.23 | CC[C@@H]1CCCCN1C(=O)COc1cccc2c1CCN(Cc1ccc(Cl)cc1)C2=O
3.11 | C[C@H]1CCCC[C@@H]1NC(=O)COc1ncnc2ccccc12
4.97 | C[C@H]1CCCN(C(=O)COC(=O)COc2cc(Cl)c(Cl)cc2Cl)C1
3.52 | O=C(CCCNC1=NS(=O)(=O)c2ccccc21)OCc1cc([N+](=O)[O-])cc2c1OCOC2
4.75 | Cc1ccc(S(=O)(=O)/N=C2\SC(=CN(C)C)C(=O)N2C2CCCCC2)cc1
5.84 | CN(c1ccccc1)S(=O)(=O)c1ccc(C(=O)/N=c2/sc3cc([N+](=O)[O-])ccc3n2C)cc1
4.18 | O=C([C@H]1CCCO1)N1CCN(C(=S)Nc2ccc(Oc3ccccc3)cc2)CC1
1.6 | CC(C)(C)C1(C)O[C@H](C(N)=O)[C@H](C(N)=O)O1 (stereo not given in full)

same assay, conditions: pH 7.0

logD | Structure (SMILES)
2.28 | Cc1ccc(N[C@H]2O[C@@H](CO)[C@H](O)[C@@H](O)[C@H]2O)cc1Br
4.93 | CC(=O)Nc1ccc([C@H]2C(C#N)=C(N)Oc3c2c(C)nn3-c2cccc(Cl)c2)cc1

same assay, conditions: pH 7.3

logD | Structure (SMILES)
3.65 | O=C1C[C@@H](n2nc(-c3ccccc3)n(-c3ccccc3)c2=S)[C@@H]2CO[C@H]1O2
5.49 | O=C1C(=O)N(OCc2ccc(Br)cc2)[C@H]2CCCC[C@@H]2N1OCc1ccc(Br)cc1
4.21 | CCCCOC(=O)C1=C(C)NC2=C(C(=O)CCC2)[C@H]1c1ccccc1OC
6.01 | CC1(C)[C@@]2(C)CC[C@]1(C(=O)Nc1ccccc1C(F)(F)F)c1nc3ccccc3nc12
4.34 | Cc1cc(C)nc(-n2nc(C)c3c2NC2=CC(C)(C)CC(=O)[C@H]2[C@@H]3c2ccco2)n1

same assay, conditions: pH 8.0

logD | Structure (SMILES)
4.65 | COc1ccc([C@@H]2Nc3ccccc3C(=O)N2c2ccccc2)cc1COc1ccc(NC(C)=O)cc1
4.96 | CC[C@H]1CS/C(=N\c2cccc(C)c2)N1C(=O)CCN1C(=O)c2ccccc2C1=O
5.04 | COC(=O)c1c(N[C@@H](NC(C)=O)C(Cl)(Cl)Cl)sc2c1CCCC2

same assay, conditions: pH 10.0

logD | Structure (SMILES)
4.99 | Clc1cccc(Cl)c1Cn1ccc(Nc2nnc(Cc3ccc(-n4cnnn4)cc3)s2)n1
4.21 | COc1cc([C@@H]2Nc3cc(C)c(C)cc3NC3=C2C(=O)CC(C)(C)C3)cc(OC)c1OC(C)=O
5.8 | CC/N=C1\S/C(=C\c2cn(CC(=O)Nc3cccc(C)c3)c3ccccc23)C(=O)N1CC
3.68 | NC(=O)c1cc(N2C(=O)[C@H]3CC=CC[C@@H]3C2=O)ccc1N1CCCCC1
4.45 | COc1ccc([C@@H]2C(C(=O)OCCOC(C)C)=C(C)NC3=C2C(=O)C[C@H](c2cccs2)C3)cc1OC
1.1 | CC(=O)/N=c1/sc2nc3ccccc3nc2n1N(C(C)=O)C(C)=O
3.37 | CC(C)(C)C(=O)[C@H]1[C@H](c2ccsc2)C(C#N)(C#N)[C@H]2C=Cc3ccccc3N12
4.09 | CCOCc1c(C)cc(C)c([C@@H]2C(C#N)=C(N)Oc3[nH]nc(C)c32)c1C

same assay, conditions: pH 10.5

logD | Structure (SMILES)
4.77 | CCOC(=O)C1=C(C)N=c2s/c(=C\c3ccc(OC(C)=O)cc3)c(=O)n2C1c1cccs1 (stereo not given)
5.4 | N#C/C(=C/c1ccc2c(c1)OCO2)C(=O)N=C1c2ccccc2CN1c1cccc([N+](=O)[O-])c1
3.1 | Cc1cc2c(c(=O)o1)[C@@H](c1cccc(F)c1F)C(C#N)=C(N)O2
4.98 | CCOc1cc(/C=N/n2cnc3sc(C)c(C)c3c2=O)cc(Br)c1OCC(N)=O
5.21 | Cn1c(N)c(C(=O)CSc2nc3sc4c(c3c(=O)n2Cc2ccccc2)CCC4)c(=O)n(C)c1=O
3.73 | C[C@@H](c1nc2c3cnn(-c4ccccc4)c3ncn2n1)n1cc([N+](=O)[O-])cn1
4.48 | CCOc1ccc(C2=NN=C3OC(N)=C(C#N)[C@@H](c4ccco4)[C@@H]32)c(OCC)c1
2.96 | CCOC(=O)C1CCN(C(=O)c2ccc(Cl)c(/N=C3/N[C@@H]4CS(=O)(=O)C[C@@H]4S3)c2)CC1
3.29 | OC[C@@H](O)Cn1c(SCCSc2nc3ccccc3n2C[C@H](O)CO)nc2ccccc21

Structure (SMILES) | logD
Cc1cc(C)n(CCOC(=O)[C@H]2[C@H](C=C(Cl)Cl)C2(C)C)n1 | 4.76
